Reference: patent publication US9469650B2, “Melampomagnolide B derivatives” (BOARD OF TRUSTEES OF THE UNIVERSITY OF ARKANSAS, priority 2013, dated 2016)

Tests used:
MOLT-4 = test: panel of 60 human tumor cell lines, growth inhibition (Leukemia); settings: MOLT-4
LOX IMVI = test: panel of 60 human tumor cell lines, growth inhibition (Melanoma)
M14 = test: as above; settings: M14
SK-MEL-2 = test: as above; settings: SK-MEL-2
SK-MEL-28 = test: as above; settings: SK-MEL-28
SK-MEL-5 = test: as above; settings: 8K-MEL-5
SNB-75 = test: panel of 60 human tumor cell lines, growth inhibition (CNS Cancer); settings: SNB-75
HCT-116 = test: panel of 60 human tumor cell lines, growth inhibition (Colon Cancer); settings: HCT-116
SW-620 = test: as above; settings: SW-620
CAKI-1 = test: panel of 60 human tumor cell lines, growth inhibition (Renal Cancer); settings: CAKI-1
SN12C = test: as above
UO-31 = test: as above; settings: UO-31
MCF7 = test: panel of 60 human tumor cell lines, growth inhibition (Breast Cancer); settings: MCF7
MDA-MB-231/ATCC = test: as above; settings: MDA-MB-231/ATCC
T-47D = test: as above; settings: T-47D
OVCAR-3 = test: panel of 60 human tumor cell lines, growth inhibition (Ovarian Cancer); settings: OVCAR-3
NCI/ADR-RES = test: as above
PC-3 = test: panel of 60 human tumor cell lines, growth inhibition (Prostate Cancer); settings: PC-3
A549/ATCC = test: panel of 60 human tumor cell lines, growth inhibition (Non-Small Cell Lung Cancer); settings: A549/ATCC

## C=C1C(=O)O[C@H]2[C@H]1CC/C(COC(=O)N1CCN(C)CC1)=C\CC[C@@]1(C)O[C@@H]21 [JVM 2-44]
MOLT-4
  GI50: 5.49 µM
  TGI: 3.43E−5
MOLT-4; Log10 Concentration −4.0
  Mean Optical Densities: 0.453
  Percent Growth: −30%
MOLT-4; Log10 Concentration −5.0
  Mean Optical Densities: 1.062
  Percent Growth: 35%
MOLT-4; Log10 Concentration −6.0
  Mean Optical Densities: 1.734
  Percent Growth: 92%
MOLT-4; Log10 Concentration −7.0
  Mean Optical Densities: 1.794
  Percent Growth: 98%
MOLT-4; Log10 Concentration −8.0
  Mean Optical Densities: 1.889
  Percent Growth: 106%
LOX IMVI
  GI50: 12.4 µM
  TGI: 2.63E−5
LOX IMVI; Log10 Concentration −4.0
  Mean Optical Densities: 0.051
  Percent Growth: −89%
LOX IMVI; Log10 Concentration −5.0
  Mean Optical Densities: 1.794
  Percent Growth: 64%
LOX IMVI; Log10 Concentration −6.0
  Percent Growth: 96%
LOX IMVI; Log10 Concentration −7.0
  Mean Optical Densities: 2.419
  Percent Growth: 94%
LOX IMVI; Log10 Concentration −8.0
  Mean Optical Densities: 2.424
  Percent Growth: 94%
M14
  GI50: 8.89 µM
  TGI: 2.58E−5
M14; Log10 Concentration −4.0
  Mean Optical Densities: 0.178
  Percent Growth: −68%
M14; Log10 Concentration −5.0
  Mean Optical Densities: 1.229
  Percent Growth: 48%
M14; Log10 Concentration −6.0
  Mean Optical Densities: 1.877
  Percent Growth: 94%
M14; Log10 Concentration −7.0
  Mean Optical Densities: 1.848
  Percent Growth: 91%
M14; Log10 Concentration −8.0
  Mean Optical Densities: 1.953
  Percent Growth: 99%
SK-MEL-2
  GI50: 17.2 µM
  TGI: 3.60E−5
SK-MEL-2; Log10 Concentration −4.0
  Mean Optical Densities: 0.382
  Percent Growth: −69%
SK-MEL-2; Log10 Concentration −5.0
  Mean Optical Densities: 1.984
  Percent Growth: 87%
SK-MEL-2; Log10 Concentration −6.0
  Mean Optical Densities: 2.148
  Percent Growth: 106%
SK-MEL-2; Log10 Concentration −7.0
  Mean Optical Densities: 2.037
  Percent Growth: 93%
SK-MEL-2; Log10 Concentration −8.0
  Mean Optical Densities: 2.082
  Percent Growth: 98%
SK-MEL-28
  GI50: 7.03 µM
  TGI: 2.21E−5
SK-MEL-28; Log10 Concentration −4.0
  Mean Optical Densities: 0.108
  Percent Growth: −80%
SK-MEL-28; Log10 Concentration −5.0
  Mean Optical Densities: 0.950
  Percent Growth: 42%
SK-MEL-28; Log10 Concentration −6.0
  Mean Optical Densities: 1.424
  Percent Growth: 93%
SK-MEL-28; Log10 Concentration −7.0
  Mean Optical Densities: 1.424
  Percent Growth: 93%
SK-MEL-28; Log10 Concentration −8.0
  Mean Optical Densities: 1.458
  Percent Growth: 96%
SK-MEL-5
  GI50: 16.1 µM
  TGI: 3.06E−5
SK-MEL-5; Log10 Concentration −4.0
  Mean Optical Densities: 0.067
  Percent Growth: −91%
SK-MEL-5; Log10 Concentration −5.0
  Mean Optical Densities: 2.878
  Percent Growth: 87%
SK-MEL-5; Log10 Concentration −6.0
  Mean Optical Densities: 3.118
  Percent Growth: 97%
SK-MEL-5; Log10 Concentration −7.0
  Mean Optical Densities: 3.182
  Percent Growth: 100%
SK-MEL-5; Log10 Concentration −8.0
  Mean Optical Densities: 3.116
  Percent Growth: 97%
SNB-75
  GI50: 7.65 µM
  TGI: 2.40E−5
SNB-75; Log10 Concentration −4.0
  Mean Optical Densities: 0.183
  Percent Growth: −76%
SNB-75; Log10 Concentration −5.0
  Mean Optical Densities: 1.112
  Percent Growth: 47%
SNB-75; Log10 Concentration −6.0
  Mean Optical Densities: 1.330
  Percent Growth: 76%
SNB-75; Log10 Concentration −7.0
  Mean Optical Densities: 1.274
  Percent Growth: 68%
SNB-75; Log10 Concentration −8.0
  Mean Optical Densities: 1.343
  Percent Growth: 78%
HCT-116
  GI50: 3.79 µM
  TGI: 1.43E−5
HCT-116; Log10 Concentration −4.0
  Mean Optical Densities: 0.061
  Percent Growth: −80%
HCT-116; Log10 Concentration −5.0
  Mean Optical Densities: 0.598
  Percent Growth: 15%
HCT-116; Log10 Concentration −6.0
  Mean Optical Densities: 2.231
  Percent Growth: 98%
HCT-116; Log10 Concentration −7.0
  Mean Optical Densities: 2.250
  Percent Growth: 99%
HCT-116; Log10 Concentration −8.0
  Mean Optical Densities: 2.298
  Percent Growth: 102%
SW-620
  GI50: 3.67 µM
  TGI: 1.49E−5
SW-620; Log10 Concentration −4.0
  Mean Optical Densities: 0.080
  Percent Growth: −78%
SW-620; Log10 Concentration −5.0
  Mean Optical Densities: 0.753
  Percent Growth: 16%
SW-620; Log10 Concentration −6.0
  Mean Optical Densities: 2.599
  Percent Growth: 94%
SW-620; Log10 Concentration −7.0
  Mean Optical Densities: 2.683
  Percent Growth: 97%
SW-620; Log10 Concentration −8.0
  Mean Optical Densities: 2.698
  Percent Growth: 98%
CAKI-1
  GI50: 4 µM
  TGI: 1.67E−5
CAKI-1; Log10 Concentration −4.0
  Mean Optical Densities: 0.032
  Percent Growth: −95%
CAKI-1; Log10 Concentration −5.0
  Mean Optical Densities: 1.287
  Percent Growth: 27%
CAKI-1; Log10 Concentration −6.0
  Mean Optical Densities: 2.593
  Percent Growth: 84%
CAKI-1; Log10 Concentration −7.0
  Mean Optical Densities: 2.649
  Percent Growth: 87%
CAKI-1; Log10 Concentration −8.0
  Mean Optical Densities: 2.814
  Percent Growth: 94%
SN12C
  GI50: 4.4 µM
  TGI: 2.80E−5
SN12C; Log10 Concentration −4.0
  Mean Optical Densities: 0.189
  Percent Growth: −64%
SN12C; Log10 Concentration −5.0
  Mean Optical Densities: 0.932
  Percent Growth: 28%
SN12C; Log10 Concentration −6.0
  Mean Optical Densities: 1.835
  Percent Growth: 90%
SN12C; Log10 Concentration −7.0
  Mean Optical Densities: 1.898
  Percent Growth: 94%
SN12C; Log10 Concentration −8.0
  Mean Optical Densities: 1.940
  Percent Growth: 97%
UO-31
  GI50: 3.08 µM
  TGI: 1.54E−5
UO-31; Log10 Concentration −4.0
  Mean Optical Densities: 0.127
  Percent Growth: −83%
UO-31; Log10 Concentration −5.0
  Mean Optical Densities: 0.983
  Percent Growth: 19%
UO-31; Log10 Concentration −6.0
  Mean Optical Densities: 1.744
  Percent Growth: 80%
UO-31; Log10 Concentration −7.0
  Mean Optical Densities: 1.737
  Percent Growth: 79%
UO-31; Log10 Concentration −8.0
  Mean Optical Densities: 1.731
  Percent Growth: 79%
MCF7
  GI50: 3.14 µM
  TGI: 1.44E−5
MCF7; Log10 Concentration −4.0
  Mean Optical Densities: 0.116
  Percent Growth: −68%
MCF7; Log10 Concentration −5.0
  Mean Optical Densities: 0.561
  Percent Growth: 13%
MCF7; Log10 Concentration −6.0
  Mean Optical Densities: 1.725
  Percent Growth: 87%
MCF7; Log10 Concentration −7.0
  Mean Optical Densities: 1.666
  Percent Growth: 83%
MCF7; Log10 Concentration −8.0
  Mean Optical Densities: 1.767
  Percent Growth: 89%
MDA-MB-231/ATCC
  GI50: 10.4 µM
  TGI: 2.64E−5
MDA-MB-231/ATCC; Log10 Concentration −4.0
  Mean Optical Densities: 0.200
  Percent Growth: −72%
MDA-MB-231/ATCC; Log10 Concentration −5.0
  Mean Optical Densities: 1.153
  Percent Growth: 52%
MDA-MB-231/ATCC; Log10 Concentration −6.0
  Mean Optical Densities: 1.525
  Percent Growth: 95%
MDA-MB-231/ATCC; Log10 Concentration −7.0
  Mean Optical Densities: 1.568
  Percent Growth: 106%
MDA-MB-231/ATCC; Log10 Concentration −8.0
  Mean Optical Densities: 1.619
  Percent Growth: 106%
T-47D
  GI50: 4.52 µM
  TGI: 1.94E−5
T-47D; Log10 Concentration −4.0
  Mean Optical Densities: 0.323
  Percent Growth: −56%
T-47D; Log10 Concentration −5.0
  Mean Optical Densities: 0.946
  Percent Growth: 23%
T-47D; Log10 Concentration −6.0
  Mean Optical Densities: 1.660
  Percent Growth: 102%
T-47D; Log10 Concentration −7.0
  Mean Optical Densities: 1.593
  Percent Growth: 94%
T-47D; Log10 Concentration −8.0
  Mean Optical Densities: 1.664
  Percent Growth: 102%
OVCAR-3
  GI50: 3.86 µM
  TGI: 1.59E−5
OVCAR-3; Log10 Concentration −4.0
  Mean Optical Densities: 0.031
  Percent Growth: −94%
OVCAR-3; Log10 Concentration −5.0
  Mean Optical Densities: 0.743
  Percent Growth: 24%
OVCAR-3; Log10 Concentration −6.0
  Mean Optical Densities: 1.396
  Percent Growth: 87%
OVCAR-3; Log10 Concentration −7.0
  Mean Optical Densities: 1.594
  Percent Growth: 107%
OVCAR-3; Log10 Concentration −8.0
  Mean Optical Densities: 1.551
  Percent Growth: 102%
NCI/ADR-RES
  GI50: 24.6 µM
  TGI: >1.00E−4
NCI/ADR-RES; Log10 Concentration −4.0
  Mean Optical Densities: 0.606
  Percent Growth: 1%
NCI/ADR-RES; Log10 Concentration −5.0
  Mean Optical Densities: 1.819
  Percent Growth: 82%
NCI/ADR-RES; Log10 Concentration −6.0
  Mean Optical Densities: 2.094
  Percent Growth: 100%
NCI/ADR-RES; Log10 Concentration −7.0
  Mean Optical Densities: 2.049
  Percent Growth: 97%
NCI/ADR-RES; Log10 Concentration −8.0
  Mean Optical Densities: 2.060
  Percent Growth: 98%
PC-3
  GI50: 21.8 µM
  TGI: 4.89E−5
PC-3; Log10 Concentration −4.0
  Mean Optical Densities: 0.340
  Percent Growth: −44%
PC-3; Log10 Concentration −5.0
  Mean Optical Densities: 1.854
  Percent Growth: 98%
PC-3; Log10 Concentration −6.0
  Mean Optical Densities: 1.917
  Percent Growth: 103%
PC-3; Log10 Concentration −7.0
  Mean Optical Densities: 1.899
  Percent Growth: 102%
PC-3; Log10 Concentration −8.0
  Mean Optical Densities: 1.916
  Percent Growth: 103%
A549/ATCC
  GI50: 20.5 µM
  TGI: 6.23E−5
A549/ATCC; Log10 Concentration −4.0
  Mean Optical Densities: 0.267
  Percent Growth: −21%
A549/ATCC; Log10 Concentration −5.0
  Mean Optical Densities: 1.536
  Percent Growth: 82%
A549/ATCC; Log10 Concentration −6.0
  Mean Optical Densities: 1.748
  Percent Growth: 97%
A549/ATCC; Log10 Concentration −7.0
  Mean Optical Densities: 1.802
  Percent Growth: 101%
A549/ATCC; Log10 Concentration −8.0
  Mean Optical Densities: 1.778
  Percent Growth: 99%
